Read-outs that look alike come from different tables or passages of the source.
Columns and labels:
TxA2 receptor = biological target: T1, TxA2 receptor (Homo sapiens, UniProt P21731); assay: Displacement of [^3 H]-SQ 29,548 Binding to Washed Human Platelets; conditions: for affinity for the receptor compared with reference standards: versus BM 13505 and BM 13177; for IC50: washed human platelets, [^3 H]-SQ 29,548 5 nM, 30 min at 25° C., pH 7.4, n = 3, read-out: ^3 H SQ 29548 binding displacement (washed human platelet) IC50
T1 construct: endogenous in cells; host or cells: washed platelets from blood of healthy human volunteers
T1 sequence (P21731 1-343): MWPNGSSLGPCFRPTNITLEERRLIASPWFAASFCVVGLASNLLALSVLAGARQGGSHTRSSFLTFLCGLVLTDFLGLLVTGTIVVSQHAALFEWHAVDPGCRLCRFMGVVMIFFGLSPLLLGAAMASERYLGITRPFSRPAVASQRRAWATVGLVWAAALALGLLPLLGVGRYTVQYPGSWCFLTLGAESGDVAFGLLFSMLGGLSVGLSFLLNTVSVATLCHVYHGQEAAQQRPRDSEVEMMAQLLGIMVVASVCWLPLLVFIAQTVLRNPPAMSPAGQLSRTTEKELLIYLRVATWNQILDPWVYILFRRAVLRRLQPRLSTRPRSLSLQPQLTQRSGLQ
Protocol: (§1) The effects of a representative group of compounds of the invention were evaluated, in comparison with known compounds, on TxB2 synthesis inhibition in vitro, in whole blood of normal rats, and on TxA2 antagonism in a binding assay in washed human platelets.
Displacement of [^3 H]-SQ 29,548 Binding to Washed Human Platelets
Blood from healthy volunteers of both sexes who had not taken any medication for at least 10 days was collected into one-tenth volume of acid citrate dextrose containing indomethacin (28 μM). Platelet rich plasma (PRP), obtained by centrifugation of the blood at 200× g for 20 min, was washed twice (1000× g for 10 min). The platelets were then resuspended in Tyrode-Hepes buffer (pH 7.4) to a final concentration of […] and incubated for 0-60 min at 25° with [^3 H]-SQ 29,548 (5 nM). For displacement experiments various concentrations (10^-9 -10^-4 M) of competing ligands were added and incubated for 30 min at 25° C. […] After the incubation, 4 ml of ice-cold TRIS-HCl buffer ( 10 mM, pH 7.4) was added to each tube and the reaction mixture was immediately filtered by suction through a Whatman GF/C glass filter disc which was washed 2 times with ice-cold TRIS-HCl (4 ml) and counted for radioactivity by a Packard β-counter.
The binding data were analysed by computerized non-linear curve fitting using the Ligand program and expressed as IC50.

TxB2 synthesis = assay: TxB2 Synthesis Inhibition in vitro, in whole blood of normal rats; assay type: cell-based, Sprague Dawley rats; conditions: Rattus norvegicus, read-out: In vitro effect on TxB2 synthesis in normal rats, IC50 (whole blood)
Protocol: as §1
TxB2 Synthesis Inhibition
Blood was withdrawn from the abdominal aorta of normal Sprague Dawley rats (Charles River Italy) under light ether anaestesia. The blood was immediately divided in portions of 0.5 ml and distributed in glass tubes each containing a concentration of the test compound, or of the reference compounds.
Samples were then allowed to clot for 1 hour at 37° C., centrifuged at 3000 rpm for 10 min, and serum collected and stored at -20° C. until assayed.

[1] = whole blood of normal rats, clotted 1 hour at 37° C., TxB2 by RIA

Row | Compound | affinity for the receptor compared with reference standards (TxA2 receptor) | IC50 (TxA2 receptor) [nM] | IC50 (TxB2 synthesis; [1]) [nM] | IC50 (TxB2 synthesis; 1 h) [nM]
1 | Cc1c(CCCC(=O)O)n(Cc2ccc(-n3ccnc3)cc2)c2ccc(F)cc12 [FCE 27093, 5-Fluoro-1-[[4-(1H-imidazol-1-yl)phenyl]methyl]-3-methyl-1H-indole-2-butanoic acid] | affinity for the receptor greater than those of compounds BM 13505 and BM 13177 | 11.9 | 1190 | 
2 | Cc1c(CCC(=O)O)n(Cc2ccc(-n3ccnc3)cc2)c2ccc(F)cc12 [FCE 27005, 5-Fluoro-1-[[4-(1H-imidazol-1-yl)phenyl]methyl]-3-methyl-1H-indole-2-propanoic acid] | affinity for the receptor greater than those of compounds BM 13505 and BM 13177 | 32.9 |  | 
3 | O=C(O)c1ccc(OCCn2ccnc2)cc1 [Dazoxiben, dazoxiben] |  |  | 1200 | 
4 | CC(=O)Oc1ccccc1C(=O)O [ASA, acetylsalicilic acid] |  |  |  | 31000
